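Step 1: Grow cells in 96-well plates. Step 2: Expose to compound for 48 hours at 5 concentrations. Step 3: Interpolate endpoints linearly; if unreached, use highest concentration. Definition used: TGI = concentration required for complete inhibition of growth.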
Tests used:
Test in all cases: NCI anticancer screen, dose series, 48 h
786-0 renal = tested on: 786-0 renal
A498 renal = tested on: A498 renal
A549 NSCLC = tested on: A549 NSCLC
ACHN renal = tested on: ACHN renal
BT-549 breast = tested on: BT-549 breast
CAKI-1 renal = tested on: CAKI-1 renal
CCRF-CEM leukemia = tested on: CCRF-CEM leukemia
COLO 205 colon = tested on: COLO 205 colon
DU-145 prostate = tested on: DU-145 prostate
EKVX NSCLC = tested on: EKVX NSCLC
HCC-2998 colon = tested on: HCC-2998 colon
HCT-116 colon = tested on: HCT-116 colon
HCT-15 colon = tested on: HCT-15 colon
HL-60(TB) leukemia = tested on: HL-60(TB) leukemia
HOP-62 NSCLC = tested on: HOP-62 NSCLC
HOP-92 NSCLC = tested on: HOP-92 NSCLC
IGROV1 ovarian = tested on: IGROV1 ovarian
K-562 leukemia = tested on: K-562 leukemia
KM12 colon = tested on: KM12 colon
LOX IMVI melanoma = tested on: LOX IMVI melanoma
M14 melanoma = tested on: M14 melanoma
MCF7 breast = tested on: MCF7 breast
MDA-MB-435 = tested on: MDA-MB-435
MDA-N = tested on: MDA-N
MOLT-4 leukemia = tested on: MOLT-4 leukemia
NCI-H23 lung = tested on: NCI-H23 lung
NCI-H460 lung = tested on: NCI-H460 lung
NCI/ADR-RES ovarian = tested on: NCI/ADR-RES ovarian
OVCAR-3 ovarian = tested on: OVCAR-3 ovarian
OVCAR-4 ovarian = tested on: OVCAR-4 ovarian
OVCAR-5 ovarian = tested on: OVCAR-5 ovarian
OVCAR-8 ovarian = tested on: OVCAR-8 ovarian
PC-3 prostate = tested on: PC-3 prostate
RPMI-8226 leukemia = tested on: RPMI-8226 leukemia
RXF 393 renal = tested on: RXF 393 renal
SF-295 CNS = tested on: SF-295 CNS
SK-MEL-2 melanoma = tested on: SK-MEL-2 melanoma
SK-MEL-28 melanoma = tested on: SK-MEL-28 melanoma
SK-MEL-5 melanoma = tested on: SK-MEL-5 melanoma
SK-OV-3 ovarian = tested on: SK-OV-3 ovarian
SN12C renal = tested on: SN12C renal
SNB-19 CNS = tested on: SNB-19 CNS
SNB-75 CNS = tested on: SNB-75 CNS
SR leukemia = tested on: SR leukemia
SW-620 colon = tested on: SW-620 colon
T-47D breast = tested on: T-47D breast
TK-10 renal = tested on: TK-10 renal
U251 CNS = tested on: U251 CNS
UACC-257 melanoma = tested on: UACC-257 melanoma
UACC-62 melanoma = tested on: UACC-62 melanoma
UO-31 renal = tested on: UO-31 renal
MALME-3M melanoma = tested on: MALME-3M melanoma
MDA-MB-231 breast = tested on: MDA-MB-231 breast
NCI-H522 lung = tested on: NCI-H522 lung
SF-539 CNS = tested on: SF-539 CNS

Which results are given for `CCOC(=O)C1=c2[nH]c3cccc4cccc(c43)n2C(=O)CC1`?
TGI (786-0 renal): > 100 µM; TGI (A498 renal): > 100 µM; TGI (A549 NSCLC): > 100 µM; TGI (ACHN renal): > 100 µM; TGI (BT-549 breast): > 100 µM; TGI (CAKI-1 renal): > 100 µM; TGI (CCRF-CEM leukemia): > 100 µM; TGI (COLO 205 colon): > 100 µM; TGI (DU-145 prostate): > 100 µM; TGI (EKVX NSCLC): > 100 µM; TGI (HCC-2998 colon): > 100 µM; TGI (HCT-116 colon): > 100 µM; TGI (HCT-15 colon): > 100 µM; TGI (HL-60(TB) leukemia): 64 µM; TGI (HOP-62 NSCLC): > 100 µM; TGI (HOP-92 NSCLC): > 100 µM; TGI (IGROV1 ovarian): > 100 µM; TGI (K-562 leukemia): > 100 µM; TGI (KM12 colon): 89.3 µM; TGI (LOX IMVI melanoma): 62.2 µM; TGI (M14 melanoma): > 100 µM; TGI (MCF7 breast): > 100 µM; TGI (MDA-MB-435): > 100 µM; TGI (MDA-N): > 100 µM; TGI (MOLT-4 leukemia): > 100 µM; TGI (NCI-H23 lung): > 100 µM; TGI (NCI-H460 lung): > 100 µM; TGI (NCI/ADR-RES ovarian): > 100 µM; TGI (OVCAR-3 ovarian): > 100 µM; TGI (OVCAR-4 ovarian): > 100 µM; TGI (OVCAR-5 ovarian): > 100 µM; TGI (OVCAR-8 ovarian): > 100 µM; TGI (PC-3 prostate): > 100 µM; TGI (RPMI-8226 leukemia): > 100 µM; TGI (RXF 393 renal): > 100 µM; TGI (SF-295 CNS): > 100 µM; TGI (SK-MEL-2 melanoma): > 100 µM; TGI (SK-MEL-28 melanoma): > 100 µM; TGI (SK-MEL-5 melanoma): > 100 µM; TGI (SK-OV-3 ovarian): > 100 µM; TGI (SN12C renal): > 100 µM; TGI (SNB-19 CNS): > 100 µM; TGI (SNB-75 CNS): > 100 µM; TGI (SR leukemia): > 100 µM; TGI (SW-620 colon): 71.3 µM; TGI (T-47D breast): 69.8 µM; TGI (TK-10 renal): > 100 µM; TGI (U251 CNS): > 100 µM; TGI (UACC-257 melanoma): > 100 µM; TGI (UACC-62 melanoma): > 100 µM; TGI (UO-31 renal): > 100 µM

Which results are given for `CC(=O)OCC1OC(N2C(=O)NC(=O)C3C=C4CCCCC4=CC32)C(OC(C)=O)C1OC(C)=O` (stereo not given)?
TGI (A498 renal): > 100 µM; TGI (A549 NSCLC): > 100 µM; TGI (ACHN renal): > 100 µM; TGI (BT-549 breast): > 100 µM; TGI (CAKI-1 renal): > 100 µM; TGI (CCRF-CEM leukemia): > 100 µM; TGI (COLO 205 colon): > 100 µM; TGI (DU-145 prostate): > 100 µM; TGI (EKVX NSCLC): > 100 µM; TGI (HCC-2998 colon): > 100 µM; TGI (HCT-116 colon): > 100 µM; TGI (HCT-15 colon): > 100 µM; TGI (HL-60(TB) leukemia): > 100 µM; TGI (HOP-92 NSCLC): > 100 µM; TGI (IGROV1 ovarian): > 100 µM; TGI (K-562 leukemia): > 100 µM; TGI (LOX IMVI melanoma): > 100 µM; TGI (M14 melanoma): > 100 µM; TGI (MALME-3M melanoma): > 100 µM; TGI (MCF7 breast): > 100 µM; TGI (MDA-MB-231 breast): > 100 µM; TGI (MDA-MB-435): > 100 µM; TGI (MDA-N): > 100 µM; TGI (MOLT-4 leukemia): > 100 µM; TGI (NCI-H23 lung): > 100 µM; TGI (NCI-H460 lung): > 100 µM; TGI (NCI-H522 lung): > 100 µM; TGI (OVCAR-3 ovarian): > 100 µM; TGI (OVCAR-4 ovarian): > 100 µM; TGI (OVCAR-5 ovarian): > 100 µM; TGI (PC-3 prostate): > 100 µM; TGI (RPMI-8226 leukemia): > 100 µM; TGI (RXF 393 renal): > 100 µM; TGI (SF-295 CNS): > 100 µM; TGI (SF-539 CNS): > 100 µM; TGI (SK-MEL-2 melanoma): > 100 µM; TGI (SK-MEL-28 melanoma): > 100 µM; TGI (SK-MEL-5 melanoma): > 100 µM; TGI (SK-OV-3 ovarian): > 100 µM; TGI (SN12C renal): > 100 µM; TGI (SNB-19 CNS): > 100 µM; TGI (SR leukemia): > 100 µM; TGI (SW-620 colon): > 100 µM; TGI (T-47D breast): > 100 µM; TGI (TK-10 renal): > 100 µM; TGI (U251 CNS): > 100 µM; TGI (UACC-257 melanoma): > 100 µM; TGI (UACC-62 melanoma): > 100 µM; TGI (UO-31 renal): > 100 µM

— PubChem BioAssay (NCI)
